According to publication PMC10069031 (European Journal of Medical Research, 2023):
Read-outs that look alike come from different tables or passages of the source.

Legend:
AKT = assay: Inhibition of AKT activation in CSF1-stimulated RAW264.7 cells (western blot); type: cell-based, mouse; details: mean ± SD (replicates), read-out: Mean kinase IC50 values: P(S473)AKT [WB]
Description: (§1) RAW264.7 cells (10^6) were seeded into cell culture dishes 6 cm in diameter and incubated in 4 mL RPMI/10% fetal bovine serum (Biochrom) for 24 h at 37 °C in a humidified 5% CO2 atmosphere. Cells were washed once with phosphate-buffered saline (PBS) and starved in 3 mL RPMI/0.1% bovine serum albumin for another 24 h. Cells were then treated for 1 h at 37 °C with drugs at the indicated final concentrations, with 0.5% DMSO as vehicle control, or left untreated, and finally stimulated for 2 min at 37 °C with 100 ng/mL recombinant mouse CSF1 (R&D Systems) by adding 1 mL prewarmed starving medium containing 400 ng/mL CSF1. Dishes were placed on ice and cells were immediately washed with ice-cold PBS and lysed with 50 µL lysis buffer (50 mM HEPES pH 7.5, 150 mM NaCl, 1.5 mM MgCl2, 10% glycerol, 1% Triton X-100, 0.5% desoxycholate, 0.2% sodium dodecyl sulfate, 1 mM ethylene glycol-bis[β-aminoethyl ether]-N,N,N′,N′-tetraacetic acid, 100 mM NaF, 10 mM Na4P2O7, 1 mM Na3VO4, 1% Phosphatase Inhibitor Cocktail 3 [Sigma-Aldrich], 1 mM phenylmethyl sulfonyl fluoride, Complete Protease Inhibitor Cocktail [Roche CustomBiotech; 1 tablet/10 mL], and 50 U/mL Benzonase [Sigma-Aldrich]). Lysed cells were scraped into Eppendorf tubes, incubated on ice for 20 min, and centrifuged at 4 °C for 10 min at 13,000 rpm; supernatants (lysates) were transferred into new tubes and stored at −80 °C.
(§2) Protein concentrations were determined using Pierce bicinchoninic acid assay (Thermo Fisher Scientific) and 40 µg/lane of total lysate was separated by SDS-PAGE on 4–12% Criterion XT Bis–Tris Gels (Bio-Rad) and subsequently transferred to polyvinylidene difluoride membranes using the Trans Blot Turbo Blotting System (Bio-Rad). For antigen detection, membranes were blocked with PBS Odyssey blocking reagent (LI-COR Biosciences) for 1 h at room temperature (RT). Primary antibodies were incubated overnight at 4 °C and the fluorescent secondary antibodies were incubated for 1 h at RT. After each antibody incubation, blots were washed with PBS with 0.05% Tween 20 (Carl Roth) for 15–30 min at RT. Fluorescent signals were quantitatively captured using the Odyssey DLx Infrared Imaging System (LI-COR Biosciences) and the half-maximal inhibitory concentration (IC50) values were calculated using GraphPad software (version 7 or newer).

ERK1/2 = assay: Inhibition of ERK activation in CSF1-stimulated RAW264.7 cells (western blot); type: cell-based, mouse; details: mean ± SD (replicates), read-out: Mean kinase IC50 values: P(T185,202;Y187,204) ERK1/2 [WB]
Description: as §1, §2

murine CSF1R = target: T1, murine CSF1R (Mus musculus, UniProt P09581); assay: CSF1R inhibition in RAW264.7 cells (western blot of pCSF1R); type: cell-based; details: RAW264.7 cells; for IC50: drug 1 h, CSF1 100 ng/mL 2 min, mean ± SD (replicates), M-4, M-5 from pCSF1R bands without relating to total CSF1R; for signal of total CSF1R: western blot
T1 construct: Western blot analysis of total lysates (40 µg/lane) from mouse RAW264.7 cells treated as indicated; endogenous in cells; host or cells: RAW264.7 (murine macrophages)
T1 sequence (P09581 20-977): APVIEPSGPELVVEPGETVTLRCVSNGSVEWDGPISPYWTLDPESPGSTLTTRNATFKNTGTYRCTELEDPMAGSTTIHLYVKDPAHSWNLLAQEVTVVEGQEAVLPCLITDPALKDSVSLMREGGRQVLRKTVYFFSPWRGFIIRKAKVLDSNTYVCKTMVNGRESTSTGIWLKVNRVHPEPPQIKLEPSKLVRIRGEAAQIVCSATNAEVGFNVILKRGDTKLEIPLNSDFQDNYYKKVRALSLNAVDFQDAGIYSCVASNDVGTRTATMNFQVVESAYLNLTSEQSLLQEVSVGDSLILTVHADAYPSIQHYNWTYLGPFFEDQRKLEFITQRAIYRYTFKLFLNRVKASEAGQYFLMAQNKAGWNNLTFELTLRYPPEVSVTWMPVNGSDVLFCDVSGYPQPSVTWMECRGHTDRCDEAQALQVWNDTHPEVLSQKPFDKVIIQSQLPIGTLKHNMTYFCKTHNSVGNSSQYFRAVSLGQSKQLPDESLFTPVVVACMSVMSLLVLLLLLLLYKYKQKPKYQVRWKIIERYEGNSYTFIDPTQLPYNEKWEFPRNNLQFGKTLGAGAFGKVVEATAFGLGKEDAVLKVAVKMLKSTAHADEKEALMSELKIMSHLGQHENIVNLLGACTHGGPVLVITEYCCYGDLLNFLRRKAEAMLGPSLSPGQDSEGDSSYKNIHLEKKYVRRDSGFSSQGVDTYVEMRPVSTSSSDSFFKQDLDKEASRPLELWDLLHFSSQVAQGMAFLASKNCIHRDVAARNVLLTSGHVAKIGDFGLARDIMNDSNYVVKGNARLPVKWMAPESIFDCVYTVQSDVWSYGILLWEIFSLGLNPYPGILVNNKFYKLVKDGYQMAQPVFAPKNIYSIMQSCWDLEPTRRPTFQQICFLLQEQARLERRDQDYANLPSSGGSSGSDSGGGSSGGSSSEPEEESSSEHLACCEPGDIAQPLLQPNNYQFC
Description: as §1, §2

Binding to mouse plasma = type: in vitro ADME
VEGFR2 = VEGFR2 (Homo sapiens, UniProt P35968); assay: Competition binding assay, reference kinase
[1] = read-out: Mean kinase IC50 values: P(Y559)CSF1R [WB]
[2] = read-out: Mean kinase IC50 values: P(Y721)CSF1R [WB]

VEGFR2, sequence (P35968 20-1356, species assumed): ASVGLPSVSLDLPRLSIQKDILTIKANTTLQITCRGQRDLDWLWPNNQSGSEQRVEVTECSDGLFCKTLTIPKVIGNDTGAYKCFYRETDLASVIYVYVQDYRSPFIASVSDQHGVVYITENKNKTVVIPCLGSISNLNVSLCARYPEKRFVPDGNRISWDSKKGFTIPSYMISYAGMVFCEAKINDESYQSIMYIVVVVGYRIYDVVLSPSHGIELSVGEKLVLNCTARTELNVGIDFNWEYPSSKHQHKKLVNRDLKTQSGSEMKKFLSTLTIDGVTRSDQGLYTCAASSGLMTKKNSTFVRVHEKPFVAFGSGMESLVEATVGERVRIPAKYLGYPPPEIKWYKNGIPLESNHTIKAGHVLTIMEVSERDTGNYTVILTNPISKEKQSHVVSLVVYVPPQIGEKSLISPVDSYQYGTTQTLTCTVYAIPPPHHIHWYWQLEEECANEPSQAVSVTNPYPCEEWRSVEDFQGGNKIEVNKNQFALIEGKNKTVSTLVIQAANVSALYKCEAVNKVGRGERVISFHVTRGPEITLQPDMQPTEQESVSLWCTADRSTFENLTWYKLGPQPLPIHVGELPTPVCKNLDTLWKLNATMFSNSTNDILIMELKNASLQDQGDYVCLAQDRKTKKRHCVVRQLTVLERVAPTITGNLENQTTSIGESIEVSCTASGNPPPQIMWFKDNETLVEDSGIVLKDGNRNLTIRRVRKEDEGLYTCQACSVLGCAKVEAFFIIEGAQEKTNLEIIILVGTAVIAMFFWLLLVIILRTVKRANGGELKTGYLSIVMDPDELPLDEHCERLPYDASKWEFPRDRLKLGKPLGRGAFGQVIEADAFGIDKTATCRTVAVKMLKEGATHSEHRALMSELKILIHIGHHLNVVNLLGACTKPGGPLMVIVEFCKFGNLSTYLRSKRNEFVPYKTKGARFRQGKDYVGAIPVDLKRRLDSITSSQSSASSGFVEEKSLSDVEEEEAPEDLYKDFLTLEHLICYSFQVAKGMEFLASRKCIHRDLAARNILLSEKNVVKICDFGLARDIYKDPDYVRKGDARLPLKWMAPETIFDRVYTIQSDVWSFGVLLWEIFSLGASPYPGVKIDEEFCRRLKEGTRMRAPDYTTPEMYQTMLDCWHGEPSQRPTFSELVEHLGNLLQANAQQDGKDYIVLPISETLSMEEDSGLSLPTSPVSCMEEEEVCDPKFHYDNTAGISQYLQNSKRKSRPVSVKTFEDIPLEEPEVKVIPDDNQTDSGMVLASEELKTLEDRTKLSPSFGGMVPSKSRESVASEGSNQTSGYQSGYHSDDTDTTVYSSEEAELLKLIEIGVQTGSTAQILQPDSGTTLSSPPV

| IC50 (AKT) [nM] | IC50 (ERK1/2) [nM] | IC50 (murine CSF1R; [1]) [nM] | IC50 (murine CSF1R; [2]) [nM] | unbound fraction (Binding to mouse plasma) [%] | signal of total CSF1R (murine CSF1R) | IC50 (VEGFR2) [nM] | SMILES |
| --- | --- | --- | --- | --- | --- | --- | --- |
| 63 ± 37 | 239 ± 239 | 66 ± 17 | 18 ± 7 | – | – | – | CNC(=O)c1cc(Oc2ccc(NC(=O)Nc3ccc(Cl)c(C(F)(F)F)c3)c(F)c2)cc[n+]1[O-] [M-2] |
| 276 ± 30 | 783 ± 34 | 273 ± 101 | 185 ± 29 | 0.332 | destabilized | 37 | NC(=O)c1cc(Oc2ccc(NC(=O)Nc3ccc(Cl)c(C(F)(F)F)c3)c(F)c2)ccn1 [M-4] |
| 93 ± 110 | 276 ± 197 | 19 ± 15 | 18 ± 14 | – | destabilized | – | NC(=O)c1cc(Oc2ccc(NC(=O)Nc3ccc(Cl)c(C(F)(F)F)c3)c(F)c2)cc[n+]1[O-] [M-5] |
